Data from patent publication US9388215B2, “Compositions and methods of using islet neogenesis peptides and analogs thereof” (SHENZHEN HIGHTIDE BIOPHARMACEUTICAL, LTD., priority 2013, dated 2016).

Legend:
[1] = Pharmacokinetics in SD rats after single subcutaneous dose (Example X); format: in vivo, rat; conditions: plasma, sc, male Sprague-Dawley rat, subcutaneous, 25 mg/kg
Description: After 7 days acclimation, a total of 15 male Sprague-Dawley (SD) rats (body weight: 230 to 270 g) in good health from Sino-British SIPPR/BK Lab Animal Ltd, Shanghai, were used in the study. All peptides, Peptide 1, Peptide 12, Peptide 16, Peptide 29 or Peptide 31, were dissolved in sterile normal saline respectively to yield the desired final concentrations and were administered via single subcutaneous (sc) dose.
Three animals in each group were used for blood collection at the time point of 5 min, 15 min, 30 min, 1 h, 2 h, 4 h, 6 h, 8 h and 24 h post-dose. Blood samples (approximately 400 μL) were collected and placed into tubes containing EDTA-K2 (dipotassium ethylene diamine tetraacetic acid) and centrifuged at 8000 rpm for 6 minutes at 4° C. to separate plasma from the samples. The resulting plasma was stored frozen at −80° C. until being analyzed.
Plasma concentrations of peptides were determined using tandem mass spectrometry (LC-MS/MS) analysis. A non-compartmental module of WinNonlin® Professional 5.2 (Pharsight; St. Louis Mo.) was used to calculate PK parameters. AUC(0-t) represents area under the curve from the time of dosing to the time of the last observation, the AUC(0-∞) represents area under the curve from the time of dosing to infinity, and the Cmax represents maximum concentration detected.

[2] = Peptide stability in human plasma; format: in vitro ADME; conditions: 100 μg/mL, 37° C.; FIG. 4, 15
Description: (§1) The stability of peptides was also tested in mouse and human plasma. Briefly, a certain amount of peptides and eucatropine powder (positive control) was accurately weighed. Test compounds were dissolved in 50% methanol-water solution and diluted to 20 mg/mL, and eucatropine was dissolved in dimethylsulfoxide (DMSO) and diluted to 10 mM, as a stock solution. Eucatropine stock solution was diluted to 0.2 mM with DMSO as a working solution. A stop reagent was prepared containing 200 ng/mL midazolam and tolbutamide in acetonitrile. A volume of 300 μL of stop solution was added to each well of a 96-well deep-well plate placed on ice beforehand.
(§2) For the stability studies, peptides and eucatropine were spiked into plasma respectively, mixed well, and then 100 μL of each mixture solution was transferred into the pre-cooled stop reagent as 0 time point sample. The remaining mixtures were incubated in a 37° C. water bath with shaking at 100 rpm (n=2). The final incubation concentration was 1 for eucatropine and 100 μg/mL for all test compounds.
(§3) At desired time points, 100 μL of incubation mixture was transferred to the stop reagent to precipitate proteins. Samples were vortexed and centrifuged at RCF 5000×g for 10 minutes, and supernatant was transferred to a test plate. The samples were analyzed by LC-MS/MS.
(§4) Slope was calculated by plotting the natural logarithm of the percentage of remaining amount of test compounds and time, and T1/2 was calculated in accordance with the following formula.
For stability in human plasma, the incubation time was 0, 30, 60 and 120 min for Peptide 1, Peptide 12, Peptide 16 and eucatropine.
The stability of peptides was also tested in rat, mouse and human plasma. Briefly, a certain amount of peptides and eucatropine powder (positive control) was accurately weighed. Test compounds were dissolved in 50% methanol-water solution and diluted to 20 mg/mL, and eucatropine was dissolved in dimethylsulfoxide (DMSO) and diluted to 10 mM, as a stock solution. Eucatropine stock solution was diluted to 0.2 mM with DMSO as a working solution. […]

[3] = Peptide stability in rat plasma; format: in vitro ADME; conditions: 100 μg/mL, 37° C.; FIG. 12, 13
Description: as §1, with “tested in rat, mouse and” for “tested in mouse and”
as §2, with “was 1 μM for eucatropine” for “was 1 for eucatropine”
as §3, §4
For stability in rat plasma, the incubation time was 0, 15, 30, 60 and 120 min for Peptide 1 and eucatropine, and 0, 15, 30, 60, 120, and 240 min for Peptide 12, Peptide 16, Peptide 29 and Peptide 31.
In another stability study in rat plasma, the incubation time was 0, 30, 60 120 and 240 min for Peptide 2, Peptide 52, Peptide 64 and eucatropine.

[4] = format: physicochemical; conditions: pH 7.4
Description: Peptide stability in buffers was tested for INGAP-PP and selected analogs. 10 mg/mL of Peptide 1, Peptide 12, Peptide 16, Peptide 29 or Peptide 31 was dissolved in isotonic buffers with pH ranging from 4.0 to 8.0. […] Peptide 12 and Peptide 29 were stable in an isotonic phosphate buffer (pH 7.4) for more than 90 days at 4° C. (there was no sign of degradation at 90 days sample check point), and 60 days at 25° C.

[5] = Peptide stability in mouse plasma; format: in vitro ADME; conditions: 100 μg/mL, 37° C.; FIG. 3, 5, 14
Description: as §1, §2, §3, §4
For stability in mouse plasma, the incubation time was 0, 5, 15, 30 and 60 min for Peptide 1 and eucatropine; 0, 15, 30, 60, 120, 240 and 480 min for Peptide 12, Peptide 16 and Peptide 29.
In another stability study in mouse plasma, the incubation time was 0, 30, 60 and 120 min for Peptide 2 and eucatropine; 0, 30, 60, 120, 240 and 960 min for Peptide 52 and Peptide 54.
as §1, with “tested in rat, mouse and” for “tested in mouse and”
as §2, with “was 1 μM for eucatropine” for “was 1 for eucatropine”
For stability in mouse plasma, the incubation time was 0, 15, 30, 60 and 120 min for Peptide 1 and eucatropine; 0, 15, 30, 60, 120, and 240 min for Peptide 31.

AUC(0-t) ([1]; read-out: AUC(0-t)): 14400 ± 1010 ng·h/mL
AUC(0-inf) ([1]; read-out: AUC(0-∞)): 14400 ± 1000 ng·h/mL
Cmax ([1]; read-out: Cmax): 16300 ± 2520 ng/mL
time stable in isotonic phosphate buffer (pH 7.4) at 4° C. [4]: more than 90 days
time stable in isotonic phosphate buffer (pH 7.4) at 25° C. [4]: 60 days
Substance: Ac-IGLHDPSHGTLPAGS-NH2 [Peptide 29, Ac-IGLHDPSHGTLPAGS-NH2]
stability in human plasma [2]: exhibited good stability in human plasma and were significantly more stable than INGAP-PP
stability in rat plasma [3]: exhibited good stability in rat plasma and were more stable than INGAP-PP
stability in mouse plasma [5]: exhibited good stability in mouse plasma and were more stable than INGAP-PP
